The results in this text go back to patent US20050101595A1, “N-containing cycloalkyl-substituted amino-thiazole derivatives and pharmaceutical compositions for inhibiting cell proliferation and methods for their use” (PFIZER INC., priority 2003, published 2005).

Structures are written as SMILES. Structures can show the parent of a compound that is named as a salt.

One may read the IC50 as the point on the concentration scale where inhibition reaches its midpoint. The term inhibition denotes the share of the control response that was lost under treatment.

One experiment concerns HCT-116 cell line. As to the kind of experiment: Inhibition of cell growth, tetrazolium salt (MTT) assay. As to conditions: HCT116 cells; compound at 250 nM. In kind it is cell-based. The protocol:
Inhibition of Cell Growth: Assessment of Cytotoxicity:
Inhibition of cell growth was measured using the tetrazolium salt assay, which is based on the ability of viable cells to reduce 3-(4,5-dimethylthiazol-2-yl)-2,5-[2H]-diphenyltetrazolium bromide (MTT) to formazan (Mossman, Journal of Immunological Methods, vol. 65 (1983), pp. 55-58). The water-insoluble purple formazan product was then detected spectrophotometrically. The HCT-116 cell line was used as a representative cancer cell line and grown in 96-well plates. Cells were plated in McCoy's 5A Medium at a volume of 135 μl/well. Plates were incubated for four hours before addition of inhibitor compounds. Different concentrations of inhibitor compounds were added in 0.5% (v/v) dimethylsulfoxide (15 μLuwell), and cells were incubated at 37° C. (5% CO2) for three to five days. At the end of the incubation, MTT was added to a final concentration of 0.2 mg/mL, and cells were incubated for 4 hours more at 37° C. After centrifugation of the plates and removal of medium, the absorbance of the formazan (solubilized in dimethylsulfoxide) was measured at 540 nm. […] All results were compared to control cells treated only with 0.5% (v/v) dimethylsulfoxide.
In the case of `CC1CCCC(NCCS(=O)(=O)N2CCC(Nc3nc(N)c(C(=O)c4c(F)cccc4F)s3)CC2)C1` (mixture of isomers) [Example S57], the “% Inhibition HCT116 @ 250 nM” value amounted to 73%.

Still in this experiment, the particulars now being: HCT116 cells; compound at 250 nM; 0.25 µM.
Take `Nc1nc(NC2CCN(S(=O)(=O)CCNCc3cccnc3)CC2)sc1C(=O)c1c(F)cccc1F` [Example S56]: the “% Inhibition HCT116 @ 250 nM” value is 73%.
On the same count and under the same terms, in the case of `CC(=O)NCCNCCS(=O)(=O)N1CCC(Nc2nc(N)c(C(=O)c3c(F)cccc3F)s2)CC1` [Example S165] it was 25%.

The same experiment, now with this note: Homo sapiens, HCT-116, 120 h, first HCT-116 column (c4); MTT, three to five days; read-out: HCT-116 IC50.
For `C[C@H](NCCS(=O)(=O)N1CCC(Nc2nc(N)c(C(=O)c3c(F)cccc3F)s2)CC1)c1ccccc1` [Example K47], the 50% inhibitory concentration (IC50) came to 100 nM.
Still for that read-out and setting: the value for `Nc1nc(NC2CCN(S(=O)(=O)CCNCc3cccc(Cl)c3)CC2)sc1C(=O)c1c(F)cccc1F` [Example K52, (4-Amino-2-{1-[2-(3-chloro-benzylamino)-ethanesulfonyl]-piperidin-4-ylamino}-thiazol-5-yl)-(2,6-difluoro-phenyl)-methanone] was 110 nM; that for `CN(C)CC#Cc1ccc(S(=O)(=O)N2CCC(Nc3nc(N)c(C(=O)c4c(F)cccc4F)s3)CC2)cc1` [Example I9, 1-(4-Amino-2-{1-[4-(3-dimethylamino-prop-1-ynyl)-benzenesulfonyl]-piperidin-4-ylamino}-thiazol-5-yl)-1-(2,6-difluoro-phenyl)-methanone D-Glucuronic Acid Salt] was 100 nM.

Staying with this experiment, now noted: Homo sapiens, HCT-116, 120 h, second HCT-116 column (c5); MTT, three to five days; read-out: HCT-116 IC50.
As to `C[C@H](NCCS(=O)(=O)N1CCC(Nc2nc(N)c(C(=O)c3c(F)cccc3F)s2)CC1)c1ccccc1` [Example K47], the half-inhibitory concentration (IC50) was 250 nM.
The same measure, in the same setting: the value for `Nc1nc(NC2CCN(S(=O)(=O)CCNCc3cccc(Cl)c3)CC2)sc1C(=O)c1c(F)cccc1F` [Example K52, (4-Amino-2-{1-[2-(3-chloro-benzylamino)-ethanesulfonyl]-piperidin-4-ylamino}-thiazol-5-yl)-(2,6-difluoro-phenyl)-methanone] was 250 nM; that for `CN(C)CC#Cc1ccc(S(=O)(=O)N2CCC(Nc3nc(N)c(C(=O)c4c(F)cccc4F)s3)CC2)cc1` [Example I9, 1-(4-Amino-2-{1-[4-(3-dimethylamino-prop-1-ynyl)-benzenesulfonyl]-piperidin-4-ylamino}-thiazol-5-yl)-1-(2,6-difluoro-phenyl)-methanone D-Glucuronic Acid Salt] was 500 nM.

Staying with this experiment, now noted: Homo sapiens, HCT-116, HCT116 cells; compound at 250 nM; read-out: % Inhibition HCT116 @ 250 nM.
On to `CN(CCS(=O)(=O)N1CCC(Nc2nc(N)c(C(=O)c3c(F)cccc3F)s2)CC1)Cc1ccccc1` [Example S28], for which the inhibition at 0.25 µM stood at 80%.
The same measure, in the same setting: the value for `Nc1nc(NC2CCN(S(=O)(=O)CCNCc3ccncc3)CC2)sc1C(=O)c1c(F)cccc1F` [Example S83] was 6%; that for `Nc1nc(NC2CCN(S(=O)(=O)CCNC3CCCc4ccccc43)CC2)sc1C(=O)c1c(F)cccc1F` (centres unmarked) [Example S68] was 21%.
Still for that read-out and setting: the value for `Nc1nc(NC2CCN(S(=O)(=O)CCNCC3CCCO3)CC2)sc1C(=O)c1c(F)cccc1F` (centres unmarked) [Example S77] was 9%.
On the same count and under the same terms, the value for `CCC(COC)NCCS(=O)(=O)N1CCC(Nc2nc(N)c(C(=O)c3c(F)cccc3F)s2)CC1` (centres unmarked) [Example S146] was 42%; that for `Nc1nc(NC2CCN(S(=O)(=O)CCN[C@H]3C=CCCC3)CC2)sc1C(=O)c1c(F)cccc1F` [Example S172] was 20%; that for `CC1CC(NCCS(=O)(=O)N2CCC(Nc3nc(N)c(C(=O)c4c(F)cccc4F)s3)CC2)CC(C)(C)C1` (centres unmarked) [Example S136] was 81%.
For the compound `NC(=O)C1CCCN(CCS(=O)(=O)N2CCC(Nc3nc(N)c(C(=O)c4c(F)cccc4F)s3)CC2)C1` (centres unmarked) [Example S12], the inhibition at 0.25 µM is 19%.
Still for that read-out and setting: in the case of `CC(C)C(CO)NCCS(=O)(=O)N1CCC(Nc2nc(N)c(C(=O)c3c(F)cccc3F)s2)CC1` (centres unmarked) [Example S74] it was 9%.
The same measure, in the same setting: the value for `CC(O)CN(CCS(=O)(=O)N1CCC(Nc2nc(N)c(C(=O)c3c(F)cccc3F)s2)CC1)CC(C)O` (centres unmarked) [Example S11] was 13%.
Still for that read-out and setting: the value for `Nc1nc(NC2CCN(S(=O)(=O)CCNCc3ccc4c(c3)CCO4)CC2)sc1C(=O)c1c(F)cccc1F` [Example S169] was 17%.
As to `CC(O)CNCCS(=O)(=O)N1CCC(Nc2nc(N)c(C(=O)c3c(F)cccc3F)s2)CC1` (centres unmarked) [Example S110], the inhibition at 0.25 µM was 16%.
Same read-out and setting: the value for `C=C(C)CNCCS(=O)(=O)N1CCC(Nc2nc(N)c(C(=O)c3c(F)cccc3F)s2)CC1` [Example S151] was 50%.
Turning to `COC(=O)[C@@H](C)NCCS(=O)(=O)N1CCC(Nc2nc(N)c(C(=O)c3c(F)cccc3F)s2)CC1` [Example S155], the inhibition at 0.25 µM was found to be 96%.
Same read-out and setting: the value for `CCC(NCCS(=O)(=O)N1CCC(Nc2nc(N)c(C(=O)c3c(F)cccc3F)s2)CC1)c1ccccc1` (centres unmarked) [Example S141] was 78%; that for `CN(CCS(=O)(=O)N1CCC(Nc2nc(N)c(C(=O)c3c(F)cccc3F)s2)CC1)C1CCCCC1` [Example S9] was 43%; that for `Nc1nc(NC2CCN(S(=O)(=O)CCNCC(F)(F)F)CC2)sc1C(=O)c1c(F)cccc1F` [Example S106] was 98%.
Take `Nc1nc(NC2CCN(S(=O)(=O)CCNCCOc3ccccc3)CC2)sc1C(=O)c1c(F)cccc1F` [Example S149]: the inhibition at 0.25 µM came out at 36%.
On the same count and under the same terms, the value for `Nc1nc(NC2CCN(S(=O)(=O)CCN3CCC[C@H]3CO)CC2)sc1C(=O)c1c(F)cccc1F` [Example S19] was 15%; that for `Nc1nc(NC2CCN(S(=O)(=O)CCNCCc3cccs3)CC2)sc1C(=O)c1c(F)cccc1F` [Example S148] was 34%; that for `CC(C)CN(C)CCS(=O)(=O)N1CCC(Nc2nc(N)c(C(=O)c3c(F)cccc3F)s2)CC1` [Example S38] was 55%.
Still for that read-out and setting: in the case of `Nc1nc(NC2CCN(S(=O)(=O)CCNCc3cccc(F)c3F)CC2)sc1C(=O)c1c(F)cccc1F` [Example S158] it was 73%; in that of `CC(C)CCNCCS(=O)(=O)N1CCC(Nc2nc(N)c(C(=O)c3c(F)cccc3F)s2)CC1` [Example S122], 54%; in that of `Nc1nc(NC2CCN(S(=O)(=O)CCN[C@H]3CCOC3=O)CC2)sc1C(=O)c1c(F)cccc1F` [Example S153], 100%.
Same read-out and setting: the value for `CCCC(C)NCCS(=O)(=O)N1CCC(Nc2nc(N)c(C(=O)c3c(F)cccc3F)s2)CC1` (centres unmarked) [Example S93] was 33%.
Regarding `CN1CCCC1CCNCCS(=O)(=O)N1CCC(Nc2nc(N)c(C(=O)c3c(F)cccc3F)s2)CC1` (centres unmarked) [Example S69], the inhibition at 0.25 µM turned out to be 31%.
Still for that read-out and setting: in the case of `Nc1nc(NC2CCN(S(=O)(=O)CCNC3c4ccccc4CC3O)CC2)sc1C(=O)c1c(F)cccc1F` (centres unmarked) [Example S150] it was 33%.
Take `Nc1nc(NC2CCN(S(=O)(=O)CCNCc3ccccc3F)CC2)sc1C(=O)c1c(F)cccc1F` [Example S95]: the inhibition at 0.25 µM was 51%.
In the case of `Nc1nc(NC2CCN(S(=O)(=O)CCNCc3cc(F)cc(F)c3)CC2)sc1C(=O)c1c(F)cccc1F` [Example S154], the inhibition at 0.25 µM was determined as 31%.
On the same count and under the same terms, the value for `C=CCNCCS(=O)(=O)N1CCC(Nc2nc(N)c(C(=O)c3c(F)cccc3F)s2)CC1` [Example S120] was 17%; that for `Cc1cnc(CNCCS(=O)(=O)N2CCC(Nc3nc(N)c(C(=O)c4c(F)cccc4F)s3)CC2)cn1` [Example S171] was 18%; that for `Nc1nc(NC2CCN(S(=O)(=O)CCNCC3CC3)CC2)sc1C(=O)c1c(F)cccc1F` [Example S139] was 39%.
Still for that read-out and setting: the value for `Nc1nc(NC2CCN(S(=O)(=O)CCN3CCC(CO)CC3)CC2)sc1C(=O)c1c(F)cccc1F` [Example S63] was 4%; that for `CN(CCS(=O)(=O)N1CCC(Nc2nc(N)c(C(=O)c3c(F)cccc3F)s2)CC1)Cc1cccnc1` [Example S34] was 21%; that for `CC1CCCCN1CCS(=O)(=O)N1CCC(Nc2nc(N)c(C(=O)c3c(F)cccc3F)s2)CC1` (centres unmarked) [Example S15] was 46%.
The same measure, in the same setting: the value for `C=CCN(C)CCS(=O)(=O)N1CCC(Nc2nc(N)c(C(=O)c3c(F)cccc3F)s2)CC1` [Example S31] was 27%; that for `Nc1nc(NC2CCN(S(=O)(=O)CCNCCNc3ccccc3)CC2)sc1C(=O)c1c(F)cccc1F` [Example S112] was 15%; that for `Cc1cccc(CNCCS(=O)(=O)N2CCC(Nc3nc(N)c(C(=O)c4c(F)cccc4F)s3)CC2)c1` [Example S101] was 80%.
For `C=CC(O)CN(CCC)CCS(=O)(=O)N1CCC(Nc2nc(N)c(C(=O)c3c(F)cccc3F)s2)CC1` (centres unmarked) [Example S47], the inhibition at 0.25 µM was 8%.
The same measure, in the same setting: the value for `Nc1nc(NC2CCN(S(=O)(=O)CCNCCCN3CCCC3=O)CC2)sc1C(=O)c1c(F)cccc1F` [Example S71] was 23%; that for `CN(C)CCNCCS(=O)(=O)N1CCC(Nc2nc(N)c(C(=O)c3c(F)cccc3F)s2)CC1` [Example S114] was 49%; that for `CC(C)(CO)NCCS(=O)(=O)N1CCC(Nc2nc(N)c(C(=O)c3c(F)cccc3F)s2)CC1` [Example S80] was 13%.
On the same count and under the same terms, the value for `CC1CCCC(C)N1CCS(=O)(=O)N1CCC(Nc2nc(N)c(C(=O)c3c(F)cccc3F)s2)CC1` (centres unmarked) [Example S14] was 91%.
Regarding `C=C(C)CN(C)CCS(=O)(=O)N1CCC(Nc2nc(N)c(C(=O)c3c(F)cccc3F)s2)CC1` [Example S51], the inhibition at 0.25 µM was found to be 83%.
On the same count and under the same terms, the value for `CC1CN(CCS(=O)(=O)N2CCC(Nc3nc(N)c(C(=O)c4c(F)cccc4F)s3)CC2)CC(C)O1` (centres unmarked) [Example S16] was 20%.
Still for that read-out and setting: in the case of `CCN1CCCC1CNCCS(=O)(=O)N1CCC(Nc2nc(N)c(C(=O)c3c(F)cccc3F)s2)CC1` (centres unmarked) [Example S70] it was 23%; in that of `CCCCN(CCC#N)CCS(=O)(=O)N1CCC(Nc2nc(N)c(C(=O)c3c(F)cccc3F)s2)CC1` [Example S37], 24%.
